US11427544B2, “Histone deacetylase 6 inhibitors and use thereof” (TAIPEI MEDICAL UNIVERSITY, priority 2016, dated 2022)

Key:
HDAC6-dynein binding = molecular target: T1, HDAC6-dynein binding (Homo sapiens, UniProt Q9UBN7); assay: HDAC6-dynein binding (immunoprecipitation, immunoblotting); format: cell-based; details: dose-dependent
T1 construct: endogenous in cells
Method: A study was conducted to evaluate the activity of a compound of Formula (I) in inhibiting HDAC6-dynein binding and inducing accumulation of polyubiquited proteins.
Cell lysates were immunoprecipitated overnight at 4° C. with 1 μg of dynein antibody and A/G-agarose beads. The precipitated beads were washed three times with 1 mL of an ice-cold cell lysis buffer solution. The resulting immune complex was resolved by 10% SDS-PAGE gel electrophoresis, followed by immunoblotting assay using anti-HDAC6 Ab.
The study was performed according to the protocol reported in Chen et al., Journal of Immunology, 2008, 181(12):8441-8449.

[1] = system: Caspase-3, Caspase-8, and Caspase-9 cleavage in RPMI8226 and NCI-H929; assay: Cleavage of Caspase-3, -8 and -9 in multiple myeloma cells, combined with bortezomib; format: cell-based, human
Method: A study was conducted to evaluate the effect of a compound of Formula (I) combined with bortezomib in increasing cleavage of Caspase-3, Caspase-8, and Caspase-9 in multiple myeloma cells.
Cells (1×10^6) were incubated for 10 minutes at 4° C. in a lysis buffer solution in a culture vessel, and then scraped off the culture vessel, incubated on ice for another 10 minutes, and centrifuged at 17,000×g for 30 minutes at 4° C. Protein samples ([…]) were electrophoresed on SDS gels and transferred onto a nitrocellulose membrane, which was blocked by incubation with 5% fat-free milk in phosphate-buffered saline (PBS) for 30 minutes at room temperature. Immunoblotting was performed by overnight incubation at 4° C. with primary antibodies in PBS, followed by incubation for 1 hour at room temperature with horseradish peroxidase (HRP)-conjugated secondary antibodies, then bound antibodies were measured using enhanced chemiluminescence (ECL) reagent (Advansta Corp., Menlo Park, Calif., USA) and exposure to photographic film.
The study was performed according to the protocol reported in Yang et al., Journal of Molecular Medicine, 2014, November; 92(11):1147-1158.

T1 sequence (Q9UBN7 whole entry): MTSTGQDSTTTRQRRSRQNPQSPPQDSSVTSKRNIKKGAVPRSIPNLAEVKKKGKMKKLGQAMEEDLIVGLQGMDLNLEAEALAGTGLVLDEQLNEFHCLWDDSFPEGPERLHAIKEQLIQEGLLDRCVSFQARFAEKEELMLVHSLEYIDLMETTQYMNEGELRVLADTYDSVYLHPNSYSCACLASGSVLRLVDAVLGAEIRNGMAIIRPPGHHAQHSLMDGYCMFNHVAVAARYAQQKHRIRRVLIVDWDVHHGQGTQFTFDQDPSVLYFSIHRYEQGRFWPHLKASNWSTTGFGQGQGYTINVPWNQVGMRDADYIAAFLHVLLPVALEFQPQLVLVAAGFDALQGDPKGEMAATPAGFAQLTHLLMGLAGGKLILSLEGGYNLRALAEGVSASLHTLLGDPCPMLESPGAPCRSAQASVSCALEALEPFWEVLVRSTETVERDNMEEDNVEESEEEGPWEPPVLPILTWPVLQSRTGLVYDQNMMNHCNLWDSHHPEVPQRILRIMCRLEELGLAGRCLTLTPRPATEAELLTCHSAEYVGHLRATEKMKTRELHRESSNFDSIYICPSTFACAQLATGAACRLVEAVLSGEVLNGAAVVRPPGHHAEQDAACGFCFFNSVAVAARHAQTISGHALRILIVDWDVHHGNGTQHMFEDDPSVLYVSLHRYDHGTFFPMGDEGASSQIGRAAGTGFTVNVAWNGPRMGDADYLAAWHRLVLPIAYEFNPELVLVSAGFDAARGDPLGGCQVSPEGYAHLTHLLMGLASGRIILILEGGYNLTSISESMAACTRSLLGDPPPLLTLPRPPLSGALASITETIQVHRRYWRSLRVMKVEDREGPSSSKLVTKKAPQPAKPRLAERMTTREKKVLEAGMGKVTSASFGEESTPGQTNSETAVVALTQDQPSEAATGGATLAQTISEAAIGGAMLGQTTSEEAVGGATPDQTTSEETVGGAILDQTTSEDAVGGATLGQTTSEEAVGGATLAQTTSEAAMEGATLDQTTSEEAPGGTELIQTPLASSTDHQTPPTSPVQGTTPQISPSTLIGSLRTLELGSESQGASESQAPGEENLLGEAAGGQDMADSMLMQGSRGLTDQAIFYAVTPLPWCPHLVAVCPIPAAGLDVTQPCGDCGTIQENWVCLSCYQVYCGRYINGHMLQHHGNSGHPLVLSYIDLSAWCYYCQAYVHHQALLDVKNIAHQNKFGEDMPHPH

O=C(NO)c1ccc(CNc2cccc3cccnc23)cc1 [Compound 28, N-hydroxy-4-((quinolin-8-ylamino)methyl)benzamide]
HDAC6-dynein binding (HDAC6-dynein binding): inhibited HDAC6-dynein binding
cleavage of Caspase-3, Caspase-8, and Caspase-9 [1]: increased cleavage of Caspase-3, Caspase-8, and Caspase-9
